Series [1] concerns dopaminergic fibers from the lower layers of the prefrontal cortex. Briefly: Intracerebral stereotaxic injections of 6-hydroxydopamine eliminating dopaminergic fibers in adult rats. The following applies: unpublished work by the inventor. The series is classed as in vivo, rat. An excerpt:
In the normal brain, dopaminergic fibers are distributed mainly in lower layers of the prefrontal cortex, Dopaminergic-fibers are abnormally distributed within the prefrontal cortex in schizophrenic patients with very low density in the lower layers (Akil, Pierri, Whitehead, Edgar, Mohila, Sampson and Lewis, American Journal of Psychiatry 1999, 156:1580-1589). […] Based on this work the inventor believed that abnormal laminar distribution of dopaminergic fibers in the prefrontal cortex may be responsible for the enhanced dopaminergic activity seen in schizophrenia. While abnormal distribution of dopaminergic fibers has been described in the prefrontal cortex in schizophrenic brains (Akil, Pierri, Whitehead, Edgar, Mohila, Sampson and Lewis, American Journal of Psychiatry 1999, 156:1580-1589), this has never implicated in the manifestation of dopaminergic hyperactivity.

The subject of series [2] is subcortical dopamine responsivity. Briefly: Behavioral testing (sniffing, locomotion, rearing) after saline or d-amphetamine challenge. It counts as in vivo, rat. How it is done:
Animals at 5 or 10 weeks of age were habituated to the testing area for three hours each on 2 consecutive days. On the 3rd day, animals were habituated for an hour and then injected with saline (0.2 ml, l.p.) and their behaviors were monitored visually for an hour. They were then injected with d-amphetamine (5 mg/kg, l.p.) and their behaviors were monitored for an additional one-hour. An examiner who was blind to the animal groups performed testing. Several behavioral measures including locomotion, rearing (vertical activity), sniffing and grooming were monitored. Different cohorts of animals were used for testing at 5 and 10 weeks. For stress response, animals were submerged in water at room temperature for 5 min in a large container, then they were placed in a plexiglass box and their behaviors (similar to those described above) were visually monitored,
For novelty induced stress response, animals were subjected to novel environment or object and their motor behaviors were monitored. Behavioral data was analyzed using standard statistical methods (Rajakumar, Laurier, Niznik and Stoessi, Synapse 1997, 26: 199-208).

Series [3] concerns the target T1, (Homo sapiens, UniProt P08138).
T1 sequence (P08138 29-427): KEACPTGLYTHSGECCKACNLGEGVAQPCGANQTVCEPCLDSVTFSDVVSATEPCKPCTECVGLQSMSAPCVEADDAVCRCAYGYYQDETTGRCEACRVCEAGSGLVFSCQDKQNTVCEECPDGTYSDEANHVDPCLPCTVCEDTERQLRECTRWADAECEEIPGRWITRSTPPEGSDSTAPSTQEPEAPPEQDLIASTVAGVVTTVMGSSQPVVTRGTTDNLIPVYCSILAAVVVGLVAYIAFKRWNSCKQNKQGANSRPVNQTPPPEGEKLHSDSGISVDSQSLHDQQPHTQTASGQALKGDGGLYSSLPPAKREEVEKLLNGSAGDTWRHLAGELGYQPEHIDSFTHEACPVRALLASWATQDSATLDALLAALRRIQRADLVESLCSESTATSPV
The following applies: cited from earlier work.

For the next series, the system named is prefrontal cortex. Briefly: Histological examination and immunohistochemistry of brains of neonatally injected rats. It counts as in vivo, rat. How it is done: […] Brains were removed, cryoprotected in 18% buffered-sucrose for 24 hours at 4° C., and sectioned in a freezing microtome 40 μm thick sections were processed for Nissl staining and immunohistochemistry as described previously (Rajakumar, Elisevich and Flumerfelt, Journal of Comparative Neurology 1994, 350:324-336).

Series [4] has as its system subplate cells in the developing prefrontal cortex. Briefly: Apoptosis of subplate cells after neonatal intracerebral injections of nerve growth factor (activated caspase-3 immunoreactivity). The series is classed as in vivo, rat. The following applies: for apoptosis of subplate cells / neurons: intracerebral injections into developing prefrontal cortex of postnatal rats (250 ng/μl/site, postnatal days 3 and 4). Here is the method: Neonatal rat pups received daily injections of nerve growth factor into the developing prefrontal cortex at 2, 3 and 4 days of age (similarly other animals such as mice or monkeys can be injected at the appropriate neonatal or fetal period of prefrontal cortical development characterized by the expression of p75 receptor in subplate cells). Scalp of rat pups were sprayed with a topical anesthesia, and 1 μl of nerve growth factor ([…] in saline, human recombinant Nerve growth factor, Cedarlane Laboratories) was pressure injected with a 30 gauges needle into the developing prefrontal cortex on each side. Injections were made 1.5 mm in front of the bregma which is visible through the scalp, 0.5 mm lateral to the midline and 1.5 mm deep to the scalp surface. Injections were made slowly over 10 sec and the needle was left in situ for an additional 30 sec. Pups were kept separated from their mother for approximately 20 min during injecttion sessions. During this time they were kept warm. Control rat pups received exactly similar treatment but injected with saline. Experimental and control rats were marked with an ear punch on the right and left ears, respectively. After injection session pups were returned to their mother and allowed to grow under standard conditions.
Both neonatally nerve growth factor or saline injected rats were anesthetized with an intraperitoneal injection of sodium pentobarbital (Somnatol, 40 mg/kg) at 5 weeks or 10 weeks of age and perfused transcardially with a solution containing 4% freshly depolymerized paraformaldehyde in 0.1 M phosphate buffer at pH 7.4. Brains were removed, cryoprotected in 18% buffered-sucrose for 24 hours at 4° C., and sectioned in a freezing microtome 40 μm thick sections were processed for Nissl staining and immunohistochemistry as described previously (Rajakumar, Elisevich and Flumerfelt, Journal of Comparative Neurology 1994, 350:324-336).

[5] abbreviates: at 5 weeks, d-amphetamine 5 mg/kg i.p. vs saline, control and experimental animals.
Setting [6] is: adult rat, neonatal injections, vs control.
Where [7] appears, read: at 5 weeks, saline or d-amphetamine challenge, n=30.
[8] abbreviates: at 10 weeks, d-amphetamine challenge, n=36.

“Also recorded” adds a separate entry of the source.

For the compound `NCCc1cc(O)c(O)cc1O` [6-hydroxydopamine], the “subcortical dopaminergic activity to systemic injections of amphetamine” value in series [1] was “markedly enhanced subcortical dopaminergic activity”.

`C[C@H](N)Cc1ccccc1` [d-amphetamine, reference compound]: in series [2] (setting [5]), the “effect of amphetamine injection on sniffing” value is “increases sniffing in both groups of animals” and the “effect of amphetamine injection on total duration of locomotion” value is listed as “increases the total duration of locomotion in both groups of animals”. Moreover, the “effect of amphetamine injection on sniffing” value in series [2] (at 10 weeks, d-amphetamine 5 mg/kg i.p. vs saline, control and experimental animals) is “increases sniffing in both groups of animals”.

For Pro-nerve growth factor, the “increased affinity for p76 receptors” value in series [3] is recorded as greater than 1000 fold.

Regarding nerve growth factor, in the series with prefrontal cortex (adult rat, control vs NGF-treated), the “parvalbumin neuronal number in the prefrontal cortex” value is reported as “comparable”. Moreover, the “GABA transporter-1 immunoreactive synapses in the prefrontal cortex” value in the series on prefrontal cortex (setting [6]) is on record as “fewer; also recorded: markedly diminished”; with prefrontal cortex (adult rat, neonatal injections, vs control, listed as NGF) it was “markedly diminished”. Further, the “density of tyrosine hydroxylase labeled (dopaminergic) fibers in lower layers of the prefrontal cortex” value with prefrontal cortex (setting [6]) is on record as “considerably decreased; also recorded: decreased density”; in the series on prefrontal cortex (adult rat, neonatal injections, vs control, listed as Nerve growth factor), “decreased dopaminergic fibers”. In addition, in the series on prefrontal cortex (setting [6]), the “laminar distribution of parvalbumin immunoreactive terminals in the prefrontal cortex” value is reported as “altered laminar distribution of parvalbumin immunoreactive terminals”. Besides, in the series with prefrontal cortex (histological examination of neonatally injected rats), the “gross structure throughout the brain” value is recorded as “apparently normal gross structure”. The “laminar distribution of GABAergic terminals in the prefrontal cortex” value with prefrontal cortex (injected animals as adults) is given as “altered laminar distribution”. The “lateral and third ventricular size” value in the series with prefrontal cortex (neonatally injected rats in comparison to control animals) is listed as “moderately enlarged; also recorded: relatively larger”. Besides, the “volume of lateral ventricles” value in the series with prefrontal cortex (rat sacrificed at 6 months of age, neonatal injections, vs control) is “increased considerably”. Moreover, the “apoptosis of subplate cells / neurons” value in series [4] is recorded as “resulting in apoptosis of the subplate cells; also recorded: specifically induced apoptosis of subplate neurons”; in series [4] (listed as NGF), “induces apoptosis”. The “effect on the hippocampus or other parts of the cerebral cortex” value in series [4] (method of injection adopted, neonatal period) is “does not affect the hippocampus or any other parts of the cerebral cortex”. For the same compound, the “mechanical, ischemic or inflammatory lesion” value in series [4] (postnatal rat brain, intracerebral injections) is recorded as “without causing any substantial mechanical, ischemic or inflammatory lesion”. Also, in series [4] (six day-old rat pup, daily intracerebral injections on postnatal days 2, 3 and 4), the “immunoreactivity of activated caspase-3 in subplate cells” value is on record as “undergoing apoptosis”. The subcortical dopaminergic responsivity entry in series [2] (adult (after the 8th week), injections of d-amphetamine) is reported as “enhanced subcortical dopamine responsivity; also recorded: increased subcortical dopaminergic responsivity”. Moreover, in series [2] (after the 8th week, neonatally injected rats), the “response to changes in the environment” value is “prolonged and enhanced response”. In addition, the entries for the “total duration of locomotor behavior, experimental vs control animals” value in series [2] (setting [7]) and in series [2] (setting [8]) were “no differences” and “significantly increased locomotor behavior”, respectively. The “total duration of rearing behavior, experimental vs control animals” value in series [2] (setting [7]) is “no differences”; in series [2] (setting [8]) it was “significantly increased rearing”. Besides, the “total duration of sniffing behavior, experimental vs control animals” value was “no differences” in series [2] (setting [7]) and “no differences” in series [2] (at 10 weeks, saline or d-amphetamine challenge, n=36). Also, in series [2] (until 8 weeks of age), the “growth and behavioral patterns, experimental vs control rats” value was “comparable growth and behavioral patterns”.
